These results are taken from PubChem BioAssay (NCI).

Common to all, as to assay: NCI anticancer screen, dose series, 48 h
The subject of assay [1] is EKVX NSCLC.
Assay [2] relates to MDA-N.
For assay [3], the system named is HCT-116 colon.
The test system of assay [4] is CCRF-CEM leukemia.
In assay [5] the test system is SW-620 colon.
Assay [6] relates to ACHN renal.
For assay [7], the system named is NCI-H460 lung.
The test system of assay [8] is SNB-19 CNS.
Assay [9] relates to A549 NSCLC.
The test system of assay [10] is K-562 leukemia.

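Protocol summary: plate cells (96-well), add compound at 5 concentrations, incubate 48 h, interpolate endpoints linearly. TGI: concentration producing complete growth inhibition.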

Regarding `CC(C)(CO)CNc1nc(N)nc(Cl)c1N`, the TGI in [1], in assay [2], in assay [3], in assay [4], in assay [5] and in assay [6] was over 100 µM in each case. Besides, the TGI in assay [7], in [8], in assay [9] and in [10] was over 100 µM each time.

On to `OCC1OC(n2cnc3cccnc32)CC1O` (centres undefined), for which the TGI in assay [1], in assay [2], in [3], in [4], in assay [5] and in assay [6] was over 100 µM in each case. The TGI in assay [7], in assay [8], in assay [9] and in assay [10] was over 100 µM each time.

As to `Cn1c(=O)c2c(-c3ccccc3)onc2n(C)c1=O`, the TGI in assay [1] was over 100 µM; in assay [2], over 100 µM; in [3], over 100 µM; in assay [4], 77.9 µM; in [5], over 100 µM; in assay [6], over 100 µM. For the same molecule, the TGI in [7], in assay [8], in [9] and in [10] was over 100 µM in each case.

Turning to `O=C(C1=C(C(=O)c2ccccc2)SC2(S1)C(C(=O)c1ccccc1)=C(C(=O)c1ccccc1)Sc1c2ssc1=O)c1ccccc1`, the TGI in assay [1], in assay [2], in assay [3], in assay [4], in assay [5] and in assay [6] was over 100 µM each time. The TGI is over 100 µM in assay [7], 66.5 µM in assay [8], over 100 µM in assay [9] and over 100 µM in assay [10].

On to `O=C(CC(O)(C(F)(F)F)C(F)(F)F)C(CCCl)C(O)(C(F)(F)F)C(F)(F)F` (centres undefined), for which the TGI in assay [1], in [2], in assay [3], in [4], in assay [5] and in assay [6] was over 100 µM throughout. Besides, the TGI in [7] was 88.6 µM; in [8] it was over 100 µM; in [9], over 100 µM; in [10], over 100 µM.

Regarding `N#CC1=C(N)C(C#N)(C#N)C(c2ccc(F)cc2)C=C1C1CC1` (centres undefined), the TGI in assay [1] was determined as 75.4 µM; in [2], 6.67 µM; in [3] it was 15.8 µM; in assay [4], 31.7 µM; in [5], 56 µM; in [6], 25.6 µM. Besides, the TGI in [7] is 17.6 µM; in assay [8], 27.9 µM; in [9], 41.7 µM; in [10], 41.9 µM.

For `Cc1ccc(S(=O)(=O)n2cncc2CO)cc1`, the TGI in [1], in assay [2], in assay [3], in [4], in [5] and in [6] was over 100 µM in each case. In addition, the TGI in assay [7], in assay [8], in [9] and in [10] was over 100 µM in each case.

As for `C=CCC(CNC(=O)OCc1ccccc1)O[Si](C)(C)C(C)(C)C` (centres undefined), the TGI in assay [1] was 74.9 µM; in assay [2] it was over 100 µM; in [3], 73.7 µM; in assay [4] it was over 100 µM; in assay [5] it was over 100 µM; in assay [6], over 100 µM. In addition, the TGI in [7], in [8], in [9] and in assay [10] was over 100 µM in each case.

As for `CN=C(Nn1cnnc1)OC`, the TGI in [1], in assay [2], in [3], in assay [4], in assay [5] and in assay [6] was over 100 µM throughout. For the same molecule, the TGI in [7], in [8], in assay [9] and in assay [10] was over 100 µM in each case.

Turning to `CC(=O)N(CN1C(=O)CCC1C(=O)O)c1ccccc1` (centres undefined), the TGI in assay [1], in assay [2], in assay [3], in assay [4], in [5] and in assay [6] was over 100 µM each time. Besides, the TGI in assay [7], in assay [8], in [9] and in assay [10] was over 100 µM each time.

Take `O=C1/C(=C/c2ccccc2)CCc2ccc(Cl)nc21`: the TGI in [1] stood at 38.3 µM; in assay [2], 18.5 µM; in [3], 7 µM; in assay [4], 5.75 µM; in [5], 18.6 µM; in [6] it was 27.4 µM. Further, the TGI is over 64 µM in assay [7], 41.5 µM in assay [8], 38.4 µM in assay [9] and 6.78 µM in assay [10].

In the case of `C/C(=C/CO[Si](C)(C)C(C)(C)C)C(=O)N(C)c1ccccc1I`, the TGI was determined as 29.1 µM in assay [1]; 31.9 µM in assay [2]; 25.8 µM in assay [3]; 43 µM in [4]; 35.8 µM in assay [5]; 31 µM in assay [6]. In addition, the TGI was 30 µM in [7], 30.6 µM in assay [8], 32.4 µM in [9] and over 100 µM in [10].

As to `COC(=O)C1=C(O)C(C(=O)OC)[C@@]2(O)[C@@H](C(=O)OC)C(c3ccc(OC(=O)/C(=C/c4ccc(Cl)cc4)c4ccc(Cl)cc4)cc3)C[C@@H]1[C@@H]2C(=O)OC` (some centres undefined), the TGI in [1] was over 100 µM; in assay [2] it was 51.9 µM; in assay [3], over 100 µM; in assay [4], over 100 µM; in assay [5] it was over 100 µM; in assay [6], over 100 µM. Besides, the TGI in assay [7], in assay [8], in [9] and in [10] was over 100 µM each time.

Take `CCOC(=O)c1nc2c3c(ncn2n1)Oc1c(c(-c2ccccc2)nn1-c1ccccc1)C3c1ccc(Cl)cc1` (centres undefined): the TGI in assay [2], in assay [3], in assay [4], in assay [5], in assay [6] and in [7] was over 100 µM in each case. The TGI in assay [8], in assay [9] and in assay [10] was over 100 µM throughout.

For `COC(=O)c1sc(=S)sc1SCc1ccccc1CSc1sc(=S)sc1C(=O)OC`, the TGI is over 100 µM in [1]; over 100 µM in assay [2]; over 100 µM in assay [3]; 87.6 µM in assay [4]; over 100 µM in assay [5]; over 100 µM in [6]. Moreover, the TGI in assay [7], in assay [8], in assay [9] and in assay [10] was over 100 µM each time.

Take `N#CCCC1C(C#N)C2CC1C1C3C=CC(C3)C21` (centres undefined): the TGI in assay [1], in assay [2], in assay [3], in [4], in assay [5] and in assay [6] was over 100 µM each time. In addition, the TGI in assay [8], in assay [9] and in assay [10] was over 100 µM in each case.

On to `Cc1cc2ccccc2n1CC(=O)NCC(C)C`, for which the TGI in assay [1], in assay [2], in assay [3], in [4], in [5] and in assay [6] was over 100 µM each time. Besides, the TGI in assay [7], in assay [8], in assay [9] and in [10] was over 100 µM throughout.

As to `COC(=O)[C@H](C)N1C(=O)N[C@@H](C(C)C)C1=O`, the TGI in assay [1], in [2], in assay [3], in [4], in assay [5] and in assay [6] was over 100 µM throughout. Besides, the TGI in [7], in assay [8], in assay [9] and in assay [10] was over 100 µM in each case.

Turning to `C/C(O)=C(\C=N\C(N)=S)C(=O)Nc1ccccc1C`, the TGI in [1], in assay [2], in assay [3], in assay [4], in [5] and in assay [6] was over 100 µM each time. Besides, the TGI in [7], in [8], in assay [9] and in [10] was over 100 µM each time.

`COc1ccc(C(O)c2ccc3c(c2)OCO3)cc1` (centres undefined): the TGI in assay [1], in assay [2], in [3], in [4], in assay [5] and in [6] was over 100 µM each time. Besides, the TGI in assay [7], in assay [8], in assay [9] and in assay [10] was over 100 µM each time.

Consider `CN(C)CCOC(=O)COc1ccc(Cl)cc1`, for which the TGI in assay [1], in assay [2], in assay [3], in assay [4], in assay [5] and in assay [6] was over 100 µM in each case. Besides, the TGI in assay [7], in assay [8], in assay [9] and in assay [10] was over 100 µM each time.

As to `CCCCCc1cc2c(cc1O)CC[C@@H]1[C@@H]2CC[C@]2(C)[C@@H](O)CC[C@@H]12`, the TGI in [1] was found to be 36.8 µM; in assay [2], 35.1 µM; in [3], 31.6 µM; in assay [4], 92.8 µM; in [5], 46.4 µM; in [6], 27.5 µM. Also, the TGI in assay [7] was 36.5 µM; in [8] it was 40.3 µM; in assay [9], 37.9 µM; in assay [10], 34.9 µM.

With `Cc1c2c3cc(O)ccc3nc-2n(C)c2ccccc12`, the TGI came out at 6.91 µM in assay [1]; 8.37 µM in assay [2]; 10.1 µM in assay [3]; 4.37 µM in assay [4]; 2.7 µM in [5]; 10.3 µM in assay [6]. Further, the TGI in assay [7] came to 5.11 µM; in assay [8], 15.1 µM; in assay [9] it was 3.48 µM; in assay [10] it was 7.5 µM.

For `CC(NC(=O)/C(=C/c1ccccc1O)NC(=O)c1ccccc1)C(=O)O` (centres undefined), the TGI was 88.2 µM in assay [1]; over 100 µM in assay [2]; over 100 µM in [3]; over 100 µM in [4]; over 100 µM in assay [5]; 33.2 µM in assay [6]. The TGI is 64.9 µM in [7], 55.2 µM in assay [8], over 100 µM in assay [9] and over 100 µM in [10].

With `CC(=O)NC1C(CO)O[C@@H]2OC(C)(C)O[C@H]12` (some centres undefined), the TGI in assay [1], in assay [2], in [3], in assay [4], in assay [5] and in [6] was over 100 µM throughout. Further, the TGI in assay [7], in assay [8] and in [9] was over 100 µM throughout.

Turning to `C#CCNC(Cc1cnc[nH]1)C(=O)O` (centres undefined), the TGI in [1], in [2], in assay [3], in assay [4], in [5] and in assay [6] was over 100 µM in each case. Besides, the TGI in assay [7], in assay [8], in assay [9] and in [10] was over 100 µM throughout.

For `Cc1nnc2cc(C(=O)O)c3ccccc3n2c1=O`, the TGI in [1], in [2], in [3], in assay [4], in assay [5] and in assay [7] was over 10 µM in each case. Further, the TGI in [8], in assay [9] and in assay [10] was over 10 µM each time.

In the case of `O=C1NC(=S)N/C1=C/c1ccccc1O`, the TGI in assay [1], in [2], in assay [3], in assay [4], in [5] and in assay [6] was over 100 µM throughout. The TGI in assay [8] and in assay [9] was over 100 µM throughout.
